Columns and labels:
Assay in all cases: Bliss excess, mean over the matrix (fraction); higher = more synergy
[1] = tested on: MS-1 (Small Cell Lung Carcinoma)
How it was run: (§1)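 Bliss excess equals the observed combination effect minus the expected value EA + EB − EA·EB, where EA and EB are the effects of each agent alone. Combination Emax is the second-highest inhibition within the matrix. Inhibition was scaled from CellTiter-Glo 2.0 luminescence, with 0 set by vehicle wells and 1 by blank wells, after 72 hours of two-drug dosing of cells plated in 1536-well plates.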

[2] = tested on: P30-OHK (B-Lymphoblastic Leukemia)
How it was run: as §1

[3] = tested on: COR-L88 (Small Cell Lung Carcinoma)
How it was run: as §1

[4] = tested on: KP-4 (Pancreatic Carcinoma)
How it was run: as §1

KALS-1 (Glioblastoma) = tested on: KALS-1 (Glioblastoma)
How it was run: as §1

ES6 (Ewing's Sarcoma) = tested on: ES6 (Ewing's Sarcoma)
How it was run: as §1

[5] = tested on: SKG-IIIa (Cervical Carcinoma)
How it was run: as §1

[6] = tested on: MOLP-8 (Plasma Cell Myeloma)
How it was run: as §1

[7] = tested on: HT-1080 (Other Solid Carcinomas)
How it was run: as §1

GAK (Melanoma) = tested on: GAK (Melanoma)
How it was run: as §1

[8] = tested on: NAMALWA (Burkitt's Lymphoma)
How it was run: as §1

UACC-257 (Melanoma) = tested on: UACC-257 (Melanoma)
How it was run: as §1

[9] = tested on: C-33-A (Cervical Carcinoma)
How it was run: as §1

[10] = tested on: RCC-JW (Kidney Carcinoma)
How it was run: as §1

Row | Structure (SMILES) | Bliss excess [1] | Bliss excess [2] | Bliss excess [3] | Bliss excess [4] | Bliss excess (KALS-1 (Glioblastoma)) | Bliss excess (ES6 (Ewing's Sarcoma)) | Bliss excess [5] | Bliss excess [6] | Bliss excess [7] | Bliss excess (GAK (Melanoma)) | Bliss excess [8] | Bliss excess (UACC-257 (Melanoma)) | Bliss excess [9] | Bliss excess [10]
1 | CN(C)CCCOc1ccc(-c2ccc3ncc4c(c3c2)n(C2CCOCC2)c(=O)n4C)cn1 [AZD0156] + C=CCn1c(=O)c2cnc(Nc3ccc(N4CCN(C)CC4)cc3)nc2n1-c1cccc(C(C)(C)O)n1 [AZD1775] (first compound max 1 µM, partner max 1 µM) | -0.0301 | 0.0179 | -0.0013 | -0.0898 | 0.0014 | -0.0501 | -0.0565 | -0.0739 | -0.0316 | -0.0058 | 0.0156 | -0.0223 | -0.0461 | -0.061
2 | CN(C)CCCOc1ccc(-c2ccc3ncc4c(c3c2)n(C2CCOCC2)c(=O)n4C)cn1 [AZD0156] + CCN(CCO)CCCOc1ccc2c(Nc3cc(CC(=O)Nc4cccc(F)c4)[nH]n3)ncnc2c1 [AZD2811] (first compound max 1 µM, 7x7, partner max 1 µM) | 0.0331 | -0.0439 | -0.0279 | -0.0162 | -0.0245 | -0.0766 | -0.05 | -0.0308 | -0.0159 | -0.0025 | 0.0323 | -0.039 | -0.0142 | -0.0243
3 | CN(C)CCCOc1ccc(-c2ccc3ncc4c(c3c2)n(C2CCOCC2)c(=O)n4C)cn1 [AZD0156] + C[C@@H]1COCCN1C2=NC(=NC(=C2)C3(CC3)[S@](=N)(=O)C)C4=C5C=CNC5=NC=C4 [AZD6738] (first compound max 1 µM, 7x7, partner max 10 µM) | 0.0279 | 0.0152 | 0.0772 | -0.0286 | -0.0032 | -0.0076 | -0.0555 | 0.0203 | 0.02 | 0.0448 | 0.0342 | -0.0338 | 0.0157 | -0.0531
4 | C=CCn1c(=O)c2cnc(Nc3ccc(N4CCN(C)CC4)cc3)nc2n1-c1cccc(C(C)(C)O)n1 [AZD1775] + C[C@@H]1COCCN1C2=NC(=NC(=C2)C3(CC3)[S@](=N)(=O)C)C4=C5C=CNC5=NC=C4 [AZD6738] (first compound max 1 µM, partner max 10 µM) | 0.0322 | 0.0928 | 0.04 | 0.031 | 0.0058 | 0.0509 | -0.0378 | -0.0064 | 0.0145 | 0.0196 | 0.0397 | 0.0398 | 0.0554 | 0.0571
5 | C=CCn1c(=O)c2cnc(Nc3ccc(N4CCN(C)CC4)cc3)nc2n1-c1cccc(C(C)(C)O)n1 [AZD1775] + O=C(c1cc(Cc2n[nH]c(=O)c3ccccc23)ccc1F)N1CCN(C(=O)C2CC2)CC1 [Olaparib] (first compound max 1 µM, partner max 10 µM) | -0.0094 | -0.0021 | -0.0925 | -0.0373 | -0.0611 | 0.0465 | -0.0648 | -0.0294 | -0.0327 | -0.0243 | -0.0133 | -0.0197 | 0.0051 | -0.0005
6 | CCN(CCO)CCCOc1ccc2c(Nc3cc(CC(=O)Nc4cccc(F)c4)[nH]n3)ncnc2c1 [AZD2811] + C=CCn1c(=O)c2cnc(Nc3ccc(N4CCN(C)CC4)cc3)nc2n1-c1cccc(C(C)(C)O)n1 [AZD1775] (first compound max 1 µM, partner max 1 µM) | -0.0205 | -0.0412 | -0.0099 | 0.0441 | -0.0307 | -0.0792 | -0.0142 | 0.0185 | 0.025 | -0.0522 | -0.0101 | -0.032 | 0.0111 | -0.0118
7 | CCN(CCO)CCCOc1ccc2c(Nc3cc(CC(=O)Nc4cccc(F)c4)[nH]n3)ncnc2c1 [AZD2811] + C[C@@H]1COCCN1C2=NC(=NC(=C2)C3(CC3)[S@](=N)(=O)C)C4=C5C=CNC5=NC=C4 [AZD6738] (first compound max 1 µM, 7x7, partner max 10 µM) | -0.0585 | -0.0736 | -0.0598 | -0.0273 | -0.038 | -0.0479 | -0.0409 | -0.028 | -0.0375 | -0.056 | 0.0394 | -0.0649 | -0.0531 | -0.0203
8 | CCN(CCO)CCCOc1ccc2c(Nc3cc(CC(=O)Nc4cccc(F)c4)[nH]n3)ncnc2c1 [AZD2811] + O=C(c1cc(Cc2n[nH]c(=O)c3ccccc23)ccc1F)N1CCN(C(=O)C2CC2)CC1 [Olaparib] (first compound max 1 µM, 7x7, partner max 10 µM) | 0.0107 | -0.04 | -0.0475 | 0.0525 | 0.0144 | -0.0457 | -0.0286 | 0.0384 | -0.0043 | -0.0049 | 0.0548 | -0.0322 | -0.0108 | -0.0021
9 | CN(CCO)CC[C@H](CSc1ccccc1)Nc1ccc(S(=O)(=O)NC(=O)c2ccc(N3CCC([C@@H](O)c4ccccc4-c4ccc(Cl)cc4)CC3)cc2)cc1S(=O)(=O)C(F)(F)F [AZD4320] + C1CN(CCC1(C(=O)N[C@@H](CCO)C2=CC=C(C=C2)Cl)N)C3=NC=NC4=C3C=CN4 [Capivasertib] (first compound max 1 µM, 7x7, partner max 3 µM) | -0.0037 | 0.0169 | 0.0065 | -0.0436 | -0.0039 | -0.0522 | -0.0318 | -0.025 | -0.0794 | -0.064 | 0.0419 | -0.0405 | -0.0302 | -0.0559
10 | CN(CCO)CC[C@H](CSc1ccccc1)Nc1ccc(S(=O)(=O)NC(=O)c2ccc(N3CCC([C@@H](O)c4ccccc4-c4ccc(Cl)cc4)CC3)cc2)cc1S(=O)(=O)C(F)(F)F [AZD4320] + C=CCn1c(=O)c2cnc(Nc3ccc(N4CCN(C)CC4)cc3)nc2n1-c1cccc(C(C)(C)O)n1 [AZD1775] (first compound max 1 µM, partner max 1 µM) | 0.112 | 0.141 | 0.0578 | -0.0187 | 0.0252 | 0.0586 | 0.0322 | 0.0782 | -0.0354 | -0.0536 | -0.0219 | -0.0419 | -0.0246 | 0.0546
11 | CN(CCO)CC[C@H](CSc1ccccc1)Nc1ccc(S(=O)(=O)NC(=O)c2ccc(N3CCC([C@@H](O)c4ccccc4-c4ccc(Cl)cc4)CC3)cc2)cc1S(=O)(=O)C(F)(F)F [AZD4320] + CCN(CCO)CCCOc1ccc2c(Nc3cc(CC(=O)Nc4cccc(F)c4)[nH]n3)ncnc2c1 [AZD2811] (first compound max 1 µM, 7x7, partner max 1 µM) | 0.0349 | 0.045 | 0.0591 | -0.021 | 0.0804 | -0.0229 | -0.015 | 0.0283 | -0.0046 | -0.0032 | 0.0873 | -0.0022 | -0.0283 | -0.0023
12 | COc1nnc2ccc(N3CCC(c4ccc(OCCN5CCN(C)C(=O)[C@H]5C)cc4)CC3)nn12 [AZD5153] + CN(CC[C@H](CSC1=CC=CC=C1)NC2=C(C=C(C=C2)S(=O)(=O)NC(=O)C3=CC=C(C=C3)N4CCC(CC4)[C@H](C5=CC=CC=C5C6=CC=C(C=C6)Cl)O)S(=O)(=O)C(F)(F)F)CCO [AZD4320] (first compound max 1 µM, 7x7, partner max 1 µM) |  | -0.0062 |  |  |  |  |  | 0.0239 | -0.0277 |  |  | 0.0654 |  | 
13 | Cc1c2c(nn1C)CSCc1cc(n(C)n1)CSc1cc(c3ccccc3c1)OCCCc1c(C(=O)O)n(C)c3c-2c(Cl)ccc13 [AZD5991] + CCN(CCO)CCCOc1ccc2c(Nc3cc(CC(=O)Nc4cccc(F)c4)[nH]n3)ncnc2c1 [AZD2811] (first compound max 1 µM, 7x7, partner max 1 µM) | 0.0123 | -0.0342 | 0.0453 | 0.0247 | -0.0294 | 0.0337 | 0.0203 | 0.0543 | 0.0096 |  | 0.089 |  | -0.028 | 0.0024
14 | CC(=O)c1c(C)c2cnc(Nc3ccc(N4CCNCC4)cn3)nc2n(C2CCCC2)c1=O [Palbociclib] + CN(CC[C@H](CSC1=CC=CC=C1)NC2=C(C=C(C=C2)S(=O)(=O)NC(=O)C3=CC=C(C=C3)N4CCC(CC4)[C@H](C5=CC=CC=C5C6=CC=C(C=C6)Cl)O)S(=O)(=O)C(F)(F)F)CCO [AZD4320] (first compound max 10 µM, 7x7, partner max 1 µM) |  | 0.0564 |  |  |  |  |  | 0.0145 | -0.121 |  |  | -0.0668 |  | 
15 | C[C@@H](c1ccc2nccn2c1)n1nnc2ncc(-c3cnn(C)c3)nc21 [Savolitinib] + CN(CC[C@H](CSC1=CC=CC=C1)NC2=C(C=C(C=C2)S(=O)(=O)NC(=O)C3=CC=C(C=C3)N4CCC(CC4)[C@H](C5=CC=CC=C5C6=CC=C(C=C6)Cl)O)S(=O)(=O)C(F)(F)F)CCO [AZD4320] (first compound max 1 µM, 7x7, partner max 1 µM) |  | -0.0183 |  |  |  |  |  | 0.0014 | -0.0522 |  |  | -0.0529 |  | 
